# Laboratory results published in patent US20140128461A1, “USE OF A FOOD COMPOSITION IN THE TREATMENT AND/OR PREVENTION OF NEUROPATHIC PAIN INDUCED BY AN ANTICANCER AGENT” (priority 2010, published 2014).
# Tests used:
# [1] = system: chronic neuropathy induced by oxaliplatin in rat; test: Thermal Place Preference Test 20° C. vs. 30° C., chronic neuropathy model, curative diet (PDD from D15); details: rats on PCD diet
# Experimental: The Thermal Place Preference Test (Bioseb®, Chaville, France) is formed of two adjacent metal plates surrounded by a chamber in opaque Plexiglas. The rat is placed in the chamber and is free to move from one plate to the other. The first plate called the <<reference plate>> is held at ambient temperature (25-30° C.) and the second plate called the <<test plate>> is held at a cold temperature. Using an infrared camera connected to a computer, the time that the animal spends on each plate is measured, together with the number of movements between the two plates. Each session lasts 3 minutes. Habituation of the animals consists of placing the rats on the apparatus for 3 minutes several times a day maintaining the two plates at a temperature of 25° C.
# [2] = system: chronic neuropathy induced by oxaliplatin in rat; test: Thermal Place Preference Test 20° C. vs. 30° C., chronic neuropathy model, preventive diet
# Experimental: The rats were distributed among plastic cages with 4 rats per cage. The cages were placed in an air-conditioned room at 22° C.±2° C., with controlled hygrometry (50%), a day/night 12-hour lighting cycle, and free access to food and water.
# Two types of compositions were used: • a composition containing a quantity of polyamines equivalent to that present in a daily food diet (Putrescine: 54 mg/kg, Cadaverine: 37 mg/kg, Spermidine: 27 mg/kg, Spermine: 7 mg/kg), • a composition with low polyamine content comprising less than 1600 picomoles/g polyamines (Putrescine<0.01 mg/kg, Cadaverine<0.01 mg/kg, Spermidine<0.01 mg/kg, Spermine<0.01 mg/kg).
# The different types of diets (diet based on a composition comprising a normal content of polyamines or PCD (Polyamine Containing Diet) and a diet based on a composition with low polyamines content called PDD (Polyamine Deficient Diet)) were given as soon as the rats arrived in the animal housing facility i.e. one week before the start of experiments.
# The Thermal Place Preference Test (Bioseb®, Chaville, France) is formed of two adjacent metal plates surrounded by a chamber in opaque Plexiglas. The rat is placed in the chamber and is free to move from one plate to the other. The first plate called the <<reference plate>> is held at ambient temperature (25-30° C.) and the second plate called the <<test plate>> is held at a cold temperature. Using an infrared camera connected to a computer, the time that the animal spends on each plate is measured, together with the number of movements between the two plates. Each session lasts 3 minutes. Habituation of the animals consists of placing the rats on the apparatus for 3 minutes several times a day maintaining the two plates at a temperature of 25° C. […] Three pairs of temperatures were chosen for the experiments in relation to the model examined:
# [3] = system: NR2B subunit of the NMDA receptors; test: Western blot of NR2B expression and phosphorylation in the dorsal horn of the spinal cord; assay type: in vivo, rat; details: D3 after oxaliplatin 6 mg/kg ip, polyamine-containing diet, vs control animals
# Experimental: The dorsal corn of the spinal cord (L4-L6) was isolated on an ice block and immediately frozen in liquid nitrogen. The samples were then stored at −80° C. until analysis.
# The tissue samples were subjected to cell lysis at 4° C. performed with 300 μL of stop buffer (50 mM Hepes, 150 mM NaCl, 10 mM EDTA, 10 mM Na2P2O7, 10 mM vanadate, 2 mM Na3VO4, 100 mM NaF, 1% Triton, 0.5 mM PMSF, 100 UI/mL Iniprol and 20 μM Leupeptine, pH 7.5). After sonication (1 to 2 minutes at 4° C.), the sample was centrifuged at 14000 rpm at 4° C. and the supernatant collected. This centrifuging step was repeated once. The supernatant contained the cytoplasmic and membrane proteins assayed by colorimetry (BC Assay UP40840A®, Interchim). […] The proteins were then transferred onto a nitrocellulose membrane (Millipore) for 2 hours in a transfer buffer (25 mM Tris, 190 mM glycine, 20% methanol, pH 8.3). The membranes were hybridised with the corresponding antibodies overnight at 4° C. […] The Western-Blots were scanned with an image analyser ChemiDoc™ XRS System, Bio-rad®) and the density of each band was quantified using computer software (Image Lab™ software, Bio-rad®)). […] The results are expressed as a percentage of the control group (non-treated group receiving a diet containing polyamines, PCD CT).
structure (smiles),measurement,setting,value
O=C1[O][Pt]2([NH][C@@H]3CCCC[C@H]3[NH]2)[O]C1=O [oxaliplatin],change in time spent on the test plate (20° C.) vs control rats,"[1]; D4 (maximal), p<0.01",−46%
same,change in time spent on the test plate (20° C.) vs control rats,"[1]; D39, p<0.01",−15%
same,change in time spent on the test plate (20° C.) vs control rats on PCD diet,"[2]; D10, p<0.001",−42%
same,change in time spent on the test plate (20° C.) vs control rats on PCD diet,"[2]; D15, p<0.001",−32%
same,change in time spent on the test plate (20° C.) vs control rats on PCD diet,"[2]; D22, p<0.001",−24%
same,change in time spent on the test plate (20° C.) vs control rats on PCD diet,"[2]; D29, p<0.05",−20%
same,expression of the NR2B subunit,[3],No variation
same,phosphorylation of the NR2B subunit on tyrosine sites 1472 and 1336 and serine site 1303,[3],No variation
